In patent US12435320B2, “CRISPR having or associated with destabilization domains” (The Broad Institute, Inc., priority 2014, dated 2025):

Columns and labels:
[1] = tested on: Factor VII; settings: LNP siRNA systems containing these lipids; hepatocytes in vivo; cited from earlier work
[2] = tested on: mammalian DHFR (DHFRts); settings: addition to cells expressing DHFRts; cited from earlier work
[3] = Double nicking indel formation with sgRNA pairs; assay type: cell-based; settings: substitution of Cas9n with Cas9H840A with a given sgRNA pair; eukaryotic system
Description: Aspects of the invention relate to the expression of the gene product being decreased or a template polynucleotide being further introduced into the DNA molecule encoding the gene product or an intervening sequence being excised precisely by allowing the two 5′ overhangs to reanneal and ligate or the activity or function of the gene product being altered or the expression of the gene product being increased. In an embodiment of the invention, the gene product is a protein. Only sgRNA pairs creating 5′ overhangs with less than 8 bp overlap between the guide sequences (offset greater than −8 bp) were able to mediate detectable indel formation. […] Nonetheless, a pair of sgRNAs that will generate a 5′ overhang with Cas9n should in principle generate the corresponding 3′ overhang instead, and double nicking. […] Accordingly, in some embodiments, a recombination template is also provided. A recombination template may be a component of another vector as described herein, contained in a separate vector, or provided as a separate polynucleotide. In some embodiments, a recombination template is designed to serve as a template in homologous recombination, such as within or near a target sequence nicked or cleaved by a CRISPR enzyme as a part of a CRISPR complex. […]

[4] = tested on: dystrophin; settings: across 48 weeks; cited from earlier work
[5] = tested on: Mutants of human FKBP12; settings: cited from earlier work
[6] = tested on: human embryonic stem cells (hESCs); assay: Mutagenic NHEJ by Cas9-D10A nickase in human embryonic stem cells; assay type: cell-based
Description: The CRISPR enzyme is Cas9, and may be Cas9 from S. pyogenes or S. pneumoniae. In some embodiments, the CRISPR enzyme directs cleavage of one or both strands at the location of a target sequence, such as within the target sequence and/or within the complement of the target sequence. In some embodiments, the CRISPR enzyme directs cleavage of one or both strands within about 1, 2, 3, 4, 5, 6, 7, 8, 9, 10, 15, 20, 25, 50, 100, 200, 500, or more base pairs from the first or last nucleotide of a target sequence. In some embodiments, a vector encodes a CRISPR enzyme that is mutated to with respect to a corresponding wild-type enzyme such that the mutated CRISPR enzyme lacks the ability to cleave one or both strands of a target polynucleotide containing a target sequence. […] In some embodiments, a Cas9 nickase may be used in combination with guide sequenc(es), e.g., two guide sequences, which target respectively sense and antisense strands of the DNA target. This combination allows both strands to be nicked and used to induce NHEJ.

[7] = tested on: EGFP gene; assay: U2OS.EGFP knockdown assay, loss of EGFP fluorescence, high-content automated microscope imaging; assay type: cell-based; settings: ligand added to the DD-SpCas9-DD fusion protein and EGFP guide RNA
Description: The low throughput, flow cytometry-readout was replaced with a high-throughput readout using a high-content, automated microscope imaging. This assay can be run in a 96-well format and the data can be analyzed by a high-throughput image analysis platform, called ImageExpress.

[8] = tested on: EGFP gene; assay: Decrease in EGFP positive cells in an EGFP-producing cell line treated with SpCas9-DD fusion protein and guide RNA; assay type: cell-based; settings: DHFR-SpCas9-DHFR (DSPD); increasing dosages of TMP

Compound: CCCCC/C=C\C/C=C\CCCCCCCCOCC(CN(C)C)OCCCCCCCC/C=C\C/C=C\CCCCC (stereo not shown) [DLinDMA, 1,2-dilinoleyloxy-3-N,N-dimethylaminopropane]
- gene silencing potency series [1]: DLinKC2-DMA>DLinKDMA>DLinDMA>>DLinDAP

Compound: CN(Cc1cnc2nc(N)nc(N)c2n1)c1ccc(C(=O)N[C@@H](CCC(=O)O)C(=O)O)cc1 [methotrexate]
- degradation of DHFRts protein [2]: inhibited degradation of the protein partially

Compound: Cas9H840A: Cas9 with the H840A mutation
- indel formation [3]: no indel formation is observed

Compound: CCCCC/C=C\C/C=C\CCCCCCCCC1(CCCCCCCC/C=C\C/C=C\CCCCC)OCC(CCN(C)C)O1 (stereo not shown) [DLinKC2-DMA, 1,2-dilinoleyl-4-(2-dimethylaminoethyl)-[1,3]-dioxolane]
- gene silencing potency series [1]: DLinKC2-DMA>DLinKDMA>DLinDMA>>DLinDAP

Compound: eteplirsen
- Dystrophin positive fibers compared to baseline, average [4]: 47%
- Functional benefit [4]: significant functional benefit

Compound: CC[C@H](C(=O)N1CCCC[C@H]1C(=O)O[C@H](CCc1ccc(OC)c(OC)c1)c1cccc(OCCN2CCOCC2)c1)c1cc(OC)c(OC)c(OC)c1 [Shield-1]
- binding and stabilization of the DD [5]: bind to and stabilize the DD in a dose-dependent manner

Compound: CCCCC/C=C\C/C=C\CCCCCCCC(=O)OCC(CN(C)C)OC(=O)CCCCCCC/C=C\C/C=C\CCCCC (stereo not shown) [DLinDAP, 1,2-dilineoyl-3-dimethylammonium-propane]
- gene silencing potency series [1]: DLinKC2-DMA>DLinKDMA>DLinDMA>>DLinDAP

Compound: 1,2-dilinoleyloxy-keto-N,N-dimethyl-3-aminopropane [DLinKDMA]
- gene silencing potency series [1]: DLinKC2-DMA>DLinKDMA>DLinDMA>>DLinDAP

Compound: Cas9-D10A: Cas9 nickase with the D10A mutation
- efficiency relative to nuclease (regular Cas9 without D10 mutation) ([6]; double nickase, two sgRNAs targeted to different strands at the same location, hESCs): about 50%
- induction of NHEJ and indels ([6]; single nickase, with a single sgRNA): unable to induce NHEJ and create indels

Compound: COc1cc(Cc2cnc(N)nc2N)cc(OC)c1OC [TMP, trimethoprim]
- Effect of added DD ligand on the fusion protein's reduction of EGFP fluorescence [7]: increased the effect of the DSPD fusion protein in a dose-dependent manner
- effect of ligand addition on the effect of the SpCas9-DD fusion protein [8]: increased the effect of the SpCas9-DD fusion protein in a dose-dependent manner
